From patent US5182387A, “Bis-dibenzoazepine compounds” (Merrell Dow Pharmaceuticals Inc., priority 1991, dated 1993)
Converted amounts (≈) assume the structure as drawn. Counter-ions that a name gives are not always drawn. Like-named read-outs stand apart in the source and are kept apart here.

Key:
[1] = tested on: chloroquine-sensitive strain of Plasmodium falciparum (clone D6); experiment: antimalarial activity against chloroquine-sensitive strain of Plasmodium falciparum (clone D6); type: cell-based
Experimental: As shown by Table 1, the compounds of the present invention have antimalarial activity on their own without other antimalarial agents. This antimalarial activity can be tested using a number of methods. For example, the compounds of formula 1 listed in Table 1 were tested for antimalarial activity against chloroquine-sensitive strain of Plasmodium falciparum (clone D6).
The methods for the growth of the malaria parasite, the testing of drugs for antimalarial effects and the clone are described in Science 242, 1301-1303 1988.

[2] = tested on: multidrug resistant Plasmodium falciparum clone W-2; experiment: antimalarial activity using multidrug resistant Plasmodium falciparum clone W-2; type: cell-based; details: read-out: IC50, ng/ml CLONE W-2
Experimental: (§1) Referring to Table 2, the antimalarial activity of compounds of formula 1 were tested using the multidrug resistant Plasmodium falciparum clone W-2. The methods for the growth of the malaria parasite, the testing of drugs for antimalarial effects and the clone are described in Science 242, 1301-1303 1988.

[3] = tested on: multidrug resistant Plasmodium falciparum clone W-2; experiment: reversal of the chloroquine resistance in clone W-2; type: cell-based
Experimental: as §1

Plasmodium falciparum = details: as described in Science 242, 1301-1303 1988; cited from earlier work
[4] = tested on: chloroquine-resistant Plasmodium falciparum; experiment: synergistic effect with chloroquine, isobologram analysis; type: cell-based; details: chloroquine-resistant P. falciparum, data not shown
Experimental: Isobologram analysis was carried out according to the method of Martin, et al., (1987) Science 235, 899-901 and Berenbaum, (1978) Journal of Infectious Diseases 137, 122-130 (data not shown).

[5] = chloroquine-sensitive clone D6, read-out: IC50, ng/ml CLONE D6
[6] = 50% reversal of the chloroquine resistance in clone W-2, read-out: Conc. in ng/ml for 50% Reversal of chloroquine
[7] = D6, read-out: IC50, ng/ml CLONE D6

SMILES | IC50 [1, 5] | IC50 [2] | EC50 [3, 6] | IC50 [1, 7] | EC50 ([3]; read-out: Conc. in ng/ml for 50% Reversal of chloroquine) | utility in reversing chloroquine resistance (Plasmodium falciparum) | synergistic effect with antimalarial agents [4]
c1ccc2c(c1)CCc1ccccc1N2CCCNCCCCNCCCN1c2ccccc2CCc2ccccc21 [Example 8, N,N'-Bis[3-(10,11-dihydro-5H-dibenzo[b,f]azepino)propyl]butanediamine Maleate] | 48 ng/mL | 110 ng/mL | 105 ng/mL | – | – | – | –
CCN(CC)CCCC(C)Nc1ccnc2cc(Cl)ccc12 (centres unmarked) [chloroquine, reference compound] | – | 160 ng/mL (≈ 0.5 µM) | – | 7 ng/mL (≈ 0.0219 µM) | – | – | –
c1ccc2c(c1)CCc1ccccc1N2CCCN1CCN(CCCN2c3ccccc3CCc3ccccc32)CC1 [Example 9, 1,4-Bis[3-(10,11-dihydro-5H-dibenzo[b,f]azepino)propyl]piperazine Maleate] | – | > 5000 ng/mL | > 200 ng/mL | – | – | – | –
CN(CCCN1c2ccccc2CCc2ccccc21)CC(=O)N(C)CCCN1c2ccccc2CCc2ccccc21 [Example 1, N,N'-Bis[3-(10,11-dihydro-5H-dibenzo[b,f]azepino)propyl]-N,N'-dimethylacetamide Oxalate] | – | 3570 ng/mL | > 200 ng/mL | – | – | – | –
CN(CCCCCN(C)CCCN1c2ccccc2CCc2ccccc21)CCCN1c2ccccc2CCc2ccccc21 [Example 5, N,N'-Bis[3-(10,11-dihydro-5H-dibenzo[b,f]azepino)propyl]-N,N'-dimethylpentanediamine Maleate] | – | 180 ng/mL | 56 ng/mL | – | – | – | –
CNCCCN1c2ccccc2CCc2ccccc21 [desipramine, reference compound] | – | 300 ng/mL (≈ 1.13 µM) | – | 15000 ng/mL (≈ 56.3 µM) | 35 ng/mL | shown to have utility in reversing chloroquine resistance | –
CN(CCCN1c2ccccc2CCc2ccccc21)CCN(C)CCCN1c2ccccc2CCc2ccccc21 [Example 2, N,N'-Bis[3-(10,11-dihydro-5H-dibenzo[b,f]azepino)propyl]-N,N'-dimethylethanediamine Maleate] | – | 1510 ng/mL | > 200 ng/mL | – | – | – | –
CN(CCCN(C)CCCN1c2ccccc2CCc2ccccc21)CCCN1c2ccccc2CCc2ccccc21 [Example 3, N,N'-Bis[3-(10,11-dihydro-5H-dibenzo[b,f]azepino)propyl]-N,N'-dimethylpropanediamine Maleate] | – | 385 ng/mL | 72 ng/mL | – | – | – | –
CN(CCCCN(C)CCCN1c2ccccc2CCc2ccccc21)CCCN1c2ccccc2CCc2ccccc21 [Example 4, N,N'-Bis[3-(10,11-dihydro-5H-dibenzo[b,f]azepino)propyl]-N,N'-dimethylbutanediamine Fumarate] | 240 ng/mL | 56 ng/mL | 14 ng/mL | – | – | – | synergistic effect with chloroquine
CN(CCCCCCN(C)CCCN1c2ccccc2CCc2ccccc21)CCCN1c2ccccc2CCc2ccccc21 [Example 6, N,N'-Bis[3-(10,11-dihydro-5H-dibenzo[b,f]azepino)propyl]-N,N'-dimethylhexanediamine Fumarate] | 210 ng/mL | 140 ng/mL | 52 ng/mL | – | – | – | –
